Measured values taken from US20080124368A1, “Composition” (priority 2004, published 2008).

Tested on: human immunodeficiency virus (HIV)
Assay: HIV viral assay (carried out by Imquest Bioscience)
Type: cell-based
Procedure: Antiviral compounds may be incorporated into polymers, such as hydrophilic polyurethanes or silicone, for certain applications where antiviral activities are needed.
The compound (0.5 gms) was protonated using dilute hydrochloric acid to a pH of 4 to a total volume of 30 ml. To 5 gms of this solution was added 5 gms of polyvinyl sulfonate (Aldrich, a 25 wt % aqueous solution). A white precipitate of the adduct immediately formed and remained colloidal without settling. This was used as such for an assay carried out by Imquest Bioscience, MD, and high dilutions were studied. […] These and other compounds could be incorporated into the polyurethane plastics of this invention for their slow delivery of antivirals; other viruses could be potentially also be deactivated.

## c1c[nH]c(-c2ncc[nH]2)n1 [bimidazole, biimidazole]
  antiviral efficacy (in words): potent antiviral
